Experiments:
[1] = test system: extirpated intestine of guinea pig; experiment: suppressing effect on shrinkage of extirpated intestine of guinea pig by electric stimulations (method of Kosterlitz); assay type: cell-based; conditions: for ED50 (mol) (mean ± s.e.m.): suppression of electrically stimulated shrinkage of extirpated guinea pig intestine, in vitro
Method: Adamantylated enkephalin derivatives a and b obtained in Examples 1 and 2 were examined for in vivo analgesic effect and in vitro suppressing effect to shrinkage of extirpated intestine of guinea pig by electric stimulations.
A suppressing effect for the shrinkage of extirpated intestine of guinea pig of the adamantylated enkephalin derivatives a and b was measured in accordance with the method of Kosterlitz (H. W. Kosterlitz, A. A. Watterfield, Ann. Rev. Pharmacol., 15, 29, (1975)).

mouse (dd-Y series) = experiment: in vivo analgesic activity by Randall Selitto method; conditions: subcutaneous administration to mouse, 1-50 mg/kg, in DMA: physiological saline (4:6); FIG. 2-5
Method: Adamantylated enkephalin derivatives a and b are subcutaneously administrated to a mouse, and an analgesic effect in the central nervous system was measured by Randall Selitto method. That is, the derivatives a and b were dissolved in a mixed solution of DMA: physiological saline solution (4:6) and about 100 μl of the solution was subcutaneously administrated to a mouse (dd-Y series: about 20 g) (1-50 mg/kg), and the analgesic effect was measured on every predetermined time interval after the administration by the Randall Selitto method.

Row | Compound | Relative Potency [1] | ED50 (mol) (mean ± s.e.m.) [1] | analgesic activity (mouse (dd-Y series)) | suppression for shrinkage, antagonism by naloxon ([1]; extirpated guinea pig intestine)
1 | CC(C)C[C@H](NC(=O)[C@H](Cc1ccccc1)NC(=O)CNC(=O)[C@@H](C)NC(=O)[C@@H](N)Cc1ccc(O)cc1)C(=O)O [[D-Ala^2] Leucine enkephalin, H-Tyr-D.Ala-Gly-Phe-Leu-OH, reference compound] | 0.89 | 3.6 ± 1.17 × 10^-8 mol | – | –
2 | H-Tyr-D.Ala-Gly-Phe-Leu-NH-Ada [Derivative b] | 2.13 | 1.5 ± 0.71 × 10^-8 mol | inferior to morphine hydrogen chloride but superior to the controls | showed suppression for shrinkage each of which was antagonized by naloxon

Source: patent US5652335A, “Physiologically active substance well capable of permeating biomembrane” (Teikoku Seiyaku Kabushiki Kaisha, priority 1990, dated 1997)
